Assay results published in the NIST ThermoML archive (doi:10.1021/je060271a).
Several values for one entry are separate records, joined by “and”; a condition that tells them apart may be missing. Equal values may be shown once.

Settings: 343.15 K, Liquid, Vibrating tube method

CCCCCCC(=O)OCC(COC(=O)CCCCCC)(COC(=O)CCCCCC)COC(=O)CCCCCC [pentaerythritol tetraheptanoate]
Settings	mass density
4113.8 kPa	943.7 kg/m3
4138.8 kPa	943.6 kg/m3
4164 kPa	943.7 kg/m3
4194.7 kPa	943.7 kg/m3
4220.3 kPa	943.6 kg/m3
4246.6 kPa	943.7 kg/m3
4273.8 kPa	943.8 kg/m3
4305 kPa	943.9 kg/m3
4331.3 kPa	943.9 kg/m3
4358.7 kPa	944 kg/m3
4390.2 kPa	943.8 kg/m3
4413.2 kPa	943.8 kg/m3
4545.2 kPa	943.9 kg/m3
4545.5 kPa	944.1 kg/m3
4546 kPa	943.9 kg/m3
4546.2 kPa	944 kg/m3
4546.5 kPa	944 kg/m3
4547.2 kPa	944 kg/m3
4547.4 kPa	944.1 kg/m3
4547.6 kPa	944 kg/m3
4547.8 kPa	944.1 kg/m3
4547.9 kPa	944.1 kg/m3
4548.3 kPa	944 kg/m3 and 944.1 kg/m3
4548.4 kPa	944 kg/m3 and 943.9 kg/m3
4548.6 kPa	944 kg/m3
4548.8 kPa	944 kg/m3 and 944.1 kg/m3
4549 kPa	943.9 kg/m3 and 944 kg/m3
4549.1 kPa	944.2 kg/m3 and 944.1 kg/m3 and 944 kg/m3
4549.3 kPa	944 kg/m3 and 944.1 kg/m3 and 943.9 kg/m3
4549.5 kPa	944 kg/m3
4549.7 kPa	944.1 kg/m3 and 944 kg/m3
4549.8 kPa	944.1 kg/m3
4549.9 kPa	944.1 kg/m3 and 944 kg/m3
4550 kPa	944 kg/m3
4550.1 kPa	944 kg/m3 and 944.1 kg/m3
4550.2 kPa	944.1 kg/m3 and 944 kg/m3 and 943.9 kg/m3
4550.4 kPa	944 kg/m3
4550.5 kPa	944 kg/m3
4550.7 kPa	944.1 kg/m3
4550.9 kPa	944 kg/m3 and 944.2 kg/m3
4551 kPa	944 kg/m3 and 944.1 kg/m3
4551.2 kPa	944.1 kg/m3 [middle of 4 runs]
4551.4 kPa	944 kg/m3 and 944.1 kg/m3
4551.5 kPa	944 kg/m3
4551.7 kPa	944.1 kg/m3 and 944 kg/m3
4551.9 kPa	944 kg/m3 and 944.1 kg/m3
4552.1 kPa	944 kg/m3 and 944.1 kg/m3
4552.2 kPa	944.1 kg/m3 and 944 kg/m3 and 944.2 kg/m3
4552.3 kPa	944.1 kg/m3
4552.4 kPa	944 kg/m3 and 944.1 kg/m3
4552.6 kPa	944 kg/m3 and 944.1 kg/m3
4552.8 kPa	944.1 kg/m3 and 943.9 kg/m3 and 944 kg/m3
4553 kPa	944 kg/m3 and 943.9 kg/m3 and 944.1 kg/m3
4553.1 kPa	944.1 kg/m3 [middle of 4 runs]
4553.3 kPa	944 kg/m3 and 944.1 kg/m3
4553.5 kPa	944.1 kg/m3 and 944 kg/m3
4553.7 kPa	944 kg/m3 and 944.1 kg/m3
4553.8 kPa	944 kg/m3 and 944.1 kg/m3
4554 kPa	944 kg/m3 and 944.1 kg/m3
4554.2 kPa	944.1 kg/m3 and 944 kg/m3
4554.3 kPa	944 kg/m3
4554.5 kPa	944.1 kg/m3 and 944 kg/m3
4554.7 kPa	944.1 kg/m3 and 943.9 kg/m3
4554.9 kPa	944.2 kg/m3 and 944 kg/m3 and 943.9 kg/m3
4555 kPa	944 kg/m3 and 944.1 kg/m3
4555.2 kPa	944 kg/m3 and 944.1 kg/m3
4555.4 kPa	944.1 kg/m3 and 944 kg/m3 and 943.9 kg/m3
4555.5 kPa	944.2 kg/m3 and 944 kg/m3 and 944.1 kg/m3
4555.7 kPa	944 kg/m3
4555.9 kPa	944 kg/m3 and 944.1 kg/m3
4556.1 kPa	944 kg/m3
4556.2 kPa	944 kg/m3 and 944.1 kg/m3
4557.6 kPa	944 kg/m3
4559 kPa	944.1 kg/m3
4559.2 kPa	944 kg/m3 and 943.9 kg/m3
4559.3 kPa	943.9 kg/m3
4559.7 kPa	944.1 kg/m3 and 944.2 kg/m3
4559.9 kPa	944.1 kg/m3
4560 kPa	944.1 kg/m3
4560.9 kPa	944.1 kg/m3
4564.5 kPa	944 kg/m3
4567.8 kPa	944 kg/m3
4571.1 kPa	944.2 kg/m3
4574.9 kPa	944 kg/m3
4578.4 kPa	944.1 kg/m3
4581.7 kPa	944 kg/m3
4584.6 kPa	943.9 kg/m3
4588.4 kPa	944 kg/m3
4591.7 kPa	944.1 kg/m3
4595.2 kPa	944.1 kg/m3
4598.3 kPa	944.1 kg/m3
4602.3 kPa	944.1 kg/m3
4605.4 kPa	943.9 kg/m3
4608.7 kPa	944.1 kg/m3
4612.7 kPa	944.2 kg/m3
4616.3 kPa	944 kg/m3
4619.4 kPa	944.1 kg/m3
4622.7 kPa	944.1 kg/m3
4626.7 kPa	944.2 kg/m3
4630 kPa	944 kg/m3
4633.1 kPa	944.1 kg/m3
4637.3 kPa	944.2 kg/m3
4640.7 kPa	944.1 kg/m3
4644 kPa	944.1 kg/m3
4647.3 kPa	944.1 kg/m3
4651.3 kPa	944 kg/m3
4654.6 kPa	944.1 kg/m3
4658.4 kPa	944 kg/m3
4662 kPa	944.1 kg/m3
4665.5 kPa	944.2 kg/m3
4669.3 kPa	944.1 kg/m3
4672.9 kPa	944.2 kg/m3
4676.2 kPa	944.1 kg/m3
4680 kPa	944.2 kg/m3
4683.3 kPa	944.1 kg/m3
4687.3 kPa	944.1 kg/m3
4690.8 kPa	944.1 kg/m3
4693.9 kPa	944.2 kg/m3
4698.2 kPa	944.2 kg/m3
4701.7 kPa	944.1 kg/m3
4705 kPa	944.2 kg/m3
4708.9 kPa	944.2 kg/m3
4712.2 kPa	944.2 kg/m3
4715.9 kPa	944.1 kg/m3
4719.3 kPa	944.1 kg/m3
4723.7 kPa	944.1 kg/m3
4726.4 kPa	944.2 kg/m3
4730.1 kPa	944.2 kg/m3
4733.2 kPa	944.2 kg/m3
4737.5 kPa	944.3 kg/m3
4741 kPa	944.2 kg/m3
4744.3 kPa	944.2 kg/m3
4747.7 kPa	944.2 kg/m3
4752.2 kPa	944 kg/m3
4755.3 kPa	944.1 kg/m3
4759 kPa	944.1 kg/m3
4763.1 kPa	944.1 kg/m3
4766.6 kPa	944.2 kg/m3
4770.2 kPa	944.3 kg/m3
4774.2 kPa	944.2 kg/m3
4777.7 kPa	944.3 kg/m3
4781.6 kPa	944.1 kg/m3
4785.1 kPa	944.2 kg/m3
4788.7 kPa	944.4 kg/m3
4792.9 kPa	944.3 kg/m3
4796.7 kPa	944.2 kg/m3
4800 kPa	944.2 kg/m3
4804.5 kPa	944.2 kg/m3
4807.9 kPa	944.3 kg/m3
4811.2 kPa	944.2 kg/m3
4815.9 kPa	944.1 kg/m3
4819.4 kPa	944.2 kg/m3
4823.2 kPa	944.2 kg/m3
4826.8 kPa	944.3 kg/m3
4831 kPa	944.2 kg/m3
4834.6 kPa	944.2 kg/m3
4838.2 kPa	944.2 kg/m3
4842 kPa	944.1 kg/m3
4846.4 kPa	944.4 kg/m3
4849.8 kPa	944.2 kg/m3
4853.5 kPa	944.2 kg/m3
4857.8 kPa	944.3 kg/m3
4861.9 kPa	944.3 kg/m3
4865.4 kPa	944.3 kg/m3
4869.2 kPa	944.3 kg/m3
4872.8 kPa	944.2 kg/m3
4877.3 kPa	944.3 kg/m3
4881 kPa	944.3 kg/m3
4884.8 kPa	944.3 kg/m3
4889.1 kPa	944.2 kg/m3
4892.9 kPa	944.2 kg/m3
4896.6 kPa	944.3 kg/m3
4901.2 kPa	944.3 kg/m3
4905 kPa	944.3 kg/m3
4908.5 kPa	944.2 kg/m3
4913 kPa	944.2 kg/m3
4916.8 kPa	944.3 kg/m3
4920.4 kPa	944.2 kg/m3
4924.1 kPa	944.3 kg/m3
4928.6 kPa	944.4 kg/m3
4932.2 kPa	944.4 kg/m3
4936 kPa	944.3 kg/m3
4940.7 kPa	944.3 kg/m3
4944.5 kPa	944.3 kg/m3
4948.5 kPa	944.4 kg/m3
4952.3 kPa	944.3 kg/m3
4956.8 kPa	944.4 kg/m3
4960.4 kPa	944.2 kg/m3
4964.6 kPa	944.3 kg/m3
4968.4 kPa	944.3 kg/m3
4972.4 kPa	944.2 kg/m3
4977 kPa	944.2 kg/m3
4980.7 kPa	944.5 kg/m3
4985.5 kPa	944.4 kg/m3
4989.3 kPa	944.4 kg/m3
4993.1 kPa	944.3 kg/m3
4996.9 kPa	944.4 kg/m3
5001.4 kPa	944.3 kg/m3
5005.4 kPa	944.4 kg/m3
5009.1 kPa	944.3 kg/m3
5014.1 kPa	944.4 kg/m3
5018.1 kPa	944.4 kg/m3
5022 kPa	944.4 kg/m3
5027 kPa	944.4 kg/m3
5030.1 kPa	944.4 kg/m3
5035.7 kPa	944.4 kg/m3
5043.5 kPa	944.3 kg/m3
5047.3 kPa	944.4 kg/m3
5051.4 kPa	944.4 kg/m3
5054.7 kPa	944.3 kg/m3
5058.5 kPa	944.5 kg/m3
5065.1 kPa	944.5 kg/m3
5069.1 kPa	944.4 kg/m3
5072.9 kPa	944.4 kg/m3
5077 kPa	944.4 kg/m3
5080.4 kPa	944.4 kg/m3
5085.2 kPa	944.4 kg/m3
5089.2 kPa	944.5 kg/m3
5093.4 kPa	944.5 kg/m3
5098.2 kPa	944.4 kg/m3
5102.2 kPa	944.3 kg/m3
5105.8 kPa	944.4 kg/m3
5109.6 kPa	944.5 kg/m3
